From publication PMC3399817 (PLoS ONE, 2012)

What was measured:
PRKG1 = molecular target: T1, PRKG1 (Homo sapiens, UniProt Q13976); assay: KINOMEscan; type: binding; conditions: PRKG1, 1 uM
T1 construct: purchased Ambit KINOMEscan (DiscoverX)
Experimental: (§1) First, we used Ambit's KINOMEscan™ technology to identify those kinases that are inhibited for substrate binding by the compounds, all assayed at 1 μM. Second, we used Invitrogen's SelectScreen® Biochemical Kinase Profiling Service to determine the in vitro IC50s for the compounds against specific kinases.

RIOK1 = molecular target: T2, RIOK1 (Homo sapiens, UniProt Q9BRS2); assay: KINOMEscan; type: binding; conditions: RIOK1, 1 uM
T2 construct: purchased Ambit KINOMEscan (DiscoverX)
T2 sequence (Q9BRS2 whole entry): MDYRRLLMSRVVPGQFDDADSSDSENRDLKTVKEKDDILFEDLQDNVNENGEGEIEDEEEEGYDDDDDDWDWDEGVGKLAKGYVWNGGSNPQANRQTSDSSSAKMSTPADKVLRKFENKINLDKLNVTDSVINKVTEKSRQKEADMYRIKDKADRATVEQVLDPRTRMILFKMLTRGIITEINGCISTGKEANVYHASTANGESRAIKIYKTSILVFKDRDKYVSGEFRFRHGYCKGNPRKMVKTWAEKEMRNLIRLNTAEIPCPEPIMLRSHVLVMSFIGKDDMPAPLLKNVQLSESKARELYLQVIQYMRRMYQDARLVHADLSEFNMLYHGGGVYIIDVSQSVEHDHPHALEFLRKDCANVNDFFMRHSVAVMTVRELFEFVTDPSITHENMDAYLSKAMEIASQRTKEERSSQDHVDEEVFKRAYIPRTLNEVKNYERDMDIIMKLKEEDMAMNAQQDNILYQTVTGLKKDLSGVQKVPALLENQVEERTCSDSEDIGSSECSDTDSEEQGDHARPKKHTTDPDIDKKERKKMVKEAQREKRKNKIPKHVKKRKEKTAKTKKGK
Experimental: as §1

CDKL2 = molecular target: T3, CDKL2 (Homo sapiens, UniProt Q92772); assay: KINOMEscan; type: binding; conditions: CDKL2, 1 uM
T3 construct: purchased Ambit KINOMEscan (DiscoverX)
T3 sequence (Q92772 whole entry): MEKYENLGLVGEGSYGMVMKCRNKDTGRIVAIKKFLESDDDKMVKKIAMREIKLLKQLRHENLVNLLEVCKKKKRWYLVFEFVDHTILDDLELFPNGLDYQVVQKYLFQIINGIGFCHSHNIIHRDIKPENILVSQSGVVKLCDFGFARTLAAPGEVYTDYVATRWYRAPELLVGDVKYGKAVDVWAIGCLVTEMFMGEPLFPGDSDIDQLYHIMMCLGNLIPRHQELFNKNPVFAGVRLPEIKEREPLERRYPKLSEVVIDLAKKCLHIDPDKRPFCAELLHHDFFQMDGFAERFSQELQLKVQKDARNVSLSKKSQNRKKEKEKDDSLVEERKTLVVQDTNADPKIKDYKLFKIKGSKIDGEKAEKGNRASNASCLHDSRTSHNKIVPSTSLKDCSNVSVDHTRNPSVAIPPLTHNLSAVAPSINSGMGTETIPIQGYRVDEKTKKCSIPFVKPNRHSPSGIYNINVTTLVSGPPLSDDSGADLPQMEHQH
Experimental: as §1

TNNI3K = molecular target: T4, TNNI3K (Homo sapiens, UniProt Q59H18); assay: KINOMEscan; type: binding; conditions: 1 uM
T4 construct: purchased Ambit KINOMEscan (DiscoverX)
Experimental: as §1

ITK = molecular target: T5, ITK (Homo sapiens, UniProt Q08881); assay: KINOMEscan; type: binding; conditions: 1 uM
T5 construct: purchased Ambit KINOMEscan (DiscoverX)
Experimental: as §1

ULK3 = molecular target: T6, ULK3 (Homo sapiens, UniProt Q6PHR2); assay: KINOMEscan; type: binding; conditions: ULK3, 1 uM
T6 construct: purchased Ambit KINOMEscan (DiscoverX)
Experimental: as §1

[1] = molecular target: T7, RPS6KA5(Kin.Dom.2-C-terminal) (Homo sapiens, UniProt O75582); assay: KINOMEscan; type: binding; conditions: 1 uM
T7 construct: RPS6KA5(Kin.Dom.2-C-terminal); purchased Ambit KINOMEscan (DiscoverX)
Experimental: as §1

EGFR(L747-T751del,Sins) = molecular target: T8, EGFR(L747-T751del,Sins) (Homo sapiens, UniProt P00533, DEL747-750/T751S); assay: KINOMEscan; type: binding; conditions: 1 uM
T8 construct: purchased Ambit KINOMEscan (DiscoverX)
Experimental: as §1

PRKG2 = molecular target: T9, PRKG2 (Homo sapiens, UniProt Q13237); assay: KINOMEscan; type: binding; conditions: PRKG2, 1 uM
T9 construct: purchased Ambit KINOMEscan (DiscoverX)
Experimental: as §1

EPHA1 = molecular target: T10, EPHA1 (Homo sapiens, UniProt P21709); assay: KINOMEscan; type: binding; conditions: EPHA1, 1 uM
T10 construct: purchased Ambit KINOMEscan (DiscoverX)
Experimental: as §1

JNK3 = molecular target: T11, JNK3 (Homo sapiens, UniProt P53779); assay: KINOMEscan; type: binding; conditions: JNK3, 1 uM
T11 construct: purchased Ambit KINOMEscan (DiscoverX)
T11 sequence (P53779 whole entry): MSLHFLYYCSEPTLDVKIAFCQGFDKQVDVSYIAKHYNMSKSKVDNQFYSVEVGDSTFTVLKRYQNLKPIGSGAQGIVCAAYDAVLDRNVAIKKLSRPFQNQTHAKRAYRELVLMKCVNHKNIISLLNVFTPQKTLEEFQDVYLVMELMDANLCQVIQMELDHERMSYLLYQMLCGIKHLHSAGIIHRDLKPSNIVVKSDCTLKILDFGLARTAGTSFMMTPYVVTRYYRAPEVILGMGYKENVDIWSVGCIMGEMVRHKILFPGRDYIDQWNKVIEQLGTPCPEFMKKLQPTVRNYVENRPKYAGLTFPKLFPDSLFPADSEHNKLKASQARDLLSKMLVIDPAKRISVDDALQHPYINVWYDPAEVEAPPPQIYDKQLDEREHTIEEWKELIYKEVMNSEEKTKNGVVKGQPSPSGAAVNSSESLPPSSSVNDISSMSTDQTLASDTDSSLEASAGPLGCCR
Experimental: as §1

FYN = molecular target: T12, FYN (Homo sapiens, UniProt P06241); assay: KINOMEscan; type: binding; conditions: 1 uM
T12 construct: purchased Ambit KINOMEscan (DiscoverX)
Experimental: as §1

MAP3K1 = molecular target: T13, MAP3K1 (Homo sapiens, UniProt Q13233); assay: KINOMEscan; type: binding; conditions: MAP3K1, 1 uM
T13 construct: purchased Ambit KINOMEscan (DiscoverX)
Experimental: as §1

BRSK1 = molecular target: T14, BRSK1 (Homo sapiens, UniProt Q8TDC3); assay: KINOMEscan; type: binding; conditions: BRSK1, 1 uM
T14 construct: purchased Ambit KINOMEscan (DiscoverX)
Experimental: as §1

ERBB4 = molecular target: T15, ERBB4 (Homo sapiens, UniProt Q15303); assay: KINOMEscan; type: binding; conditions: ERBB4, 1 uM
T15 construct: purchased Ambit KINOMEscan (DiscoverX)
Experimental: as §1

OSR1 = molecular target: T16, OSR1 (Homo sapiens, UniProt O95747); assay: KINOMEscan; type: binding; conditions: OSR1, 1 uM
T16 construct: purchased Ambit KINOMEscan (DiscoverX)
Experimental: as §1

HIPK4 = molecular target: T17, HIPK4 (Homo sapiens, UniProt Q8NE63); assay: KINOMEscan; type: binding; conditions: HIPK4, 1 uM
T17 construct: purchased Ambit KINOMEscan (DiscoverX)
Experimental: as §1

KIT(V559D,V654A) = molecular target: T18, KIT(V559D,V654A) (Homo sapiens, UniProt P10721, V559D/V654A); assay: KINOMEscan; type: binding; conditions: 1 uM
T18 construct: purchased Ambit KINOMEscan (DiscoverX)
T18 sequence (P10721 26-976 V559D/V654A): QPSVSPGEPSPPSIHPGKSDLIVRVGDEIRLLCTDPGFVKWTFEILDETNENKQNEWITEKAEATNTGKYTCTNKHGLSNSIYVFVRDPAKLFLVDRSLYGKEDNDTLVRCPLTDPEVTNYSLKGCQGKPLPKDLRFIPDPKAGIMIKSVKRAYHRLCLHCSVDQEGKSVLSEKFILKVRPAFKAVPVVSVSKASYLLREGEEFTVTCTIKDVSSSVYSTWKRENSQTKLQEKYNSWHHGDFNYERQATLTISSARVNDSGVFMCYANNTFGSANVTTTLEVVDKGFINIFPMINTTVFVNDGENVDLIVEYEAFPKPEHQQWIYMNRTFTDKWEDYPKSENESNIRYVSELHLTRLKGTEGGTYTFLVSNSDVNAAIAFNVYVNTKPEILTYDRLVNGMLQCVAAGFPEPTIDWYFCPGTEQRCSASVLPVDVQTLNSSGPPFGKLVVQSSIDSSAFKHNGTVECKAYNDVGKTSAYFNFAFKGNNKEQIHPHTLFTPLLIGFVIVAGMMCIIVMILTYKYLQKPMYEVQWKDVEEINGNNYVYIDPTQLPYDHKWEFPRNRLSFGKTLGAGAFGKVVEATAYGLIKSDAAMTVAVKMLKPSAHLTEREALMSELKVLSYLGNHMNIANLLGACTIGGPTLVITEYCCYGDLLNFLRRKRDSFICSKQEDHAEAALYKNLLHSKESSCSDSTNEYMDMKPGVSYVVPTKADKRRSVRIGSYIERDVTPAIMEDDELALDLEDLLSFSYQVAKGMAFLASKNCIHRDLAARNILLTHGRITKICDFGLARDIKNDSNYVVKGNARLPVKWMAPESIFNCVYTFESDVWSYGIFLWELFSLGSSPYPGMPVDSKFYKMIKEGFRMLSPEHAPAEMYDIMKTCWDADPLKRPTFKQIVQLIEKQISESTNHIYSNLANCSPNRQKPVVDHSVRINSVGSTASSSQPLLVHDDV
Experimental: as §1

NEK5 = molecular target: T19, NEK5 (Homo sapiens, UniProt Q6P3R8); assay: KINOMEscan; type: binding; conditions: NEK5, 1 uM
T19 construct: purchased Ambit KINOMEscan (DiscoverX)
Experimental: as §1

CIT = molecular target: T20, CIT (Homo sapiens, UniProt O14578); assay: KINOMEscan; type: binding; conditions: 1 uM
T20 construct: purchased Ambit KINOMEscan (DiscoverX)
Experimental: as §1

CSNK1A1 = molecular target: T21, CSNK1A1 (Homo sapiens, UniProt P48729); assay: KINOMEscan; type: binding; conditions: CSNK1A1, 1 uM
T21 construct: purchased Ambit KINOMEscan (DiscoverX)
Experimental: as §1

MRCKB = molecular target: T22, MRCKB (Homo sapiens, UniProt Q9Y5S2); assay: KINOMEscan; type: binding; conditions: 1 uM
T22 construct: purchased Ambit KINOMEscan (DiscoverX)
Experimental: as §1

CLK4 = molecular target: T23, CLK4 (Homo sapiens, UniProt Q9HAZ1); assay: KINOMEscan; type: binding; conditions: CLK4, 1 uM
T23 construct: purchased Ambit KINOMEscan (DiscoverX)
Experimental: as §1

PIM1 = molecular target: T24, PIM1 (Homo sapiens, UniProt P11309); assay: KINOMEscan; type: binding; conditions: PIM1, 1 uM
T24 construct: purchased Ambit KINOMEscan (DiscoverX)
T24 sequence (P11309 whole entry): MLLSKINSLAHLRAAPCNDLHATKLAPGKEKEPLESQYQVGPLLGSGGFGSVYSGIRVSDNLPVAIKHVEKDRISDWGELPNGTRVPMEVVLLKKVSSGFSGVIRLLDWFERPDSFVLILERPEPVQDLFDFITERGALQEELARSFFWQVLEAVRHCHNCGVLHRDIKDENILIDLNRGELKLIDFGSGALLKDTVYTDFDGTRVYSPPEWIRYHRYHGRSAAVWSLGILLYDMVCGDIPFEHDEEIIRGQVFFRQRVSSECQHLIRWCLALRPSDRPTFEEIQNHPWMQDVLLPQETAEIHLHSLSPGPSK
Experimental: as §1

PDGFRA = molecular target: T25, PDGFRA (Homo sapiens, UniProt P16234); assay: KINOMEscan; type: binding; conditions: 1 uM
T25 construct: purchased Ambit KINOMEscan (DiscoverX)
Experimental: as §1

RIOK3 = molecular target: T26, RIOK3 (Homo sapiens, UniProt O14730); assay: KINOMEscan; type: binding; conditions: RIOK3, 1 uM
T26 construct: purchased Ambit KINOMEscan (DiscoverX)
Experimental: as §1

PLK1 = molecular target: T27, PLK1 (Homo sapiens, UniProt P53350); assay: KINOMEscan; type: binding; conditions: PLK1, 1 uM
T27 construct: purchased Ambit KINOMEscan (DiscoverX)
Experimental: as §1

ARK5 = molecular target: T28, ARK5 (Homo sapiens, UniProt O60285); assay: KINOMEscan; type: binding; conditions: ARK5, 1 uM
T28 construct: purchased Ambit KINOMEscan (DiscoverX)
Experimental: as §1

MYO3A = molecular target: T29, MYO3A (Homo sapiens, UniProt Q8NEV4); assay: KINOMEscan; type: binding; conditions: 1 uM
T29 construct: purchased Ambit KINOMEscan (DiscoverX)
Experimental: as §1

BMPR1B = molecular target: T30, BMPR1B (Homo sapiens, UniProt O00238); assay: KINOMEscan; type: binding; conditions: 1 uM
T30 construct: purchased Ambit KINOMEscan (DiscoverX)
T30 sequence (O00238 14-502): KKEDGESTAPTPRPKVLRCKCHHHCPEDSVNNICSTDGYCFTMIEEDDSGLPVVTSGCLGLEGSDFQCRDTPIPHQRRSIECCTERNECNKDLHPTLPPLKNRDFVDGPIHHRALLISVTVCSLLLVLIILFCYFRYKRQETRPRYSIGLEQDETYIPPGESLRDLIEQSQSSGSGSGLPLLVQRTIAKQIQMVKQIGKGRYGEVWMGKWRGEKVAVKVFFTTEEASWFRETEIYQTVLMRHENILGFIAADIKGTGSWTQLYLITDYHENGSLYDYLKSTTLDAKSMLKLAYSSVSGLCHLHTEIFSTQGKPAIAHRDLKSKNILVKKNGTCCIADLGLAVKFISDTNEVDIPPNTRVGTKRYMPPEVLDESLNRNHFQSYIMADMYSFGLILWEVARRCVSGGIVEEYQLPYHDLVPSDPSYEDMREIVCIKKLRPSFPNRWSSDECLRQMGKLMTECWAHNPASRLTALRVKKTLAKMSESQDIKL
Experimental: as §1

PRP4 = molecular target: T31, PRP4 (Homo sapiens, UniProt Q13523); assay: KINOMEscan; type: binding; conditions: PRP4, 1 uM
T31 construct: purchased Ambit KINOMEscan (DiscoverX)
T31 sequence (Q13523 whole entry): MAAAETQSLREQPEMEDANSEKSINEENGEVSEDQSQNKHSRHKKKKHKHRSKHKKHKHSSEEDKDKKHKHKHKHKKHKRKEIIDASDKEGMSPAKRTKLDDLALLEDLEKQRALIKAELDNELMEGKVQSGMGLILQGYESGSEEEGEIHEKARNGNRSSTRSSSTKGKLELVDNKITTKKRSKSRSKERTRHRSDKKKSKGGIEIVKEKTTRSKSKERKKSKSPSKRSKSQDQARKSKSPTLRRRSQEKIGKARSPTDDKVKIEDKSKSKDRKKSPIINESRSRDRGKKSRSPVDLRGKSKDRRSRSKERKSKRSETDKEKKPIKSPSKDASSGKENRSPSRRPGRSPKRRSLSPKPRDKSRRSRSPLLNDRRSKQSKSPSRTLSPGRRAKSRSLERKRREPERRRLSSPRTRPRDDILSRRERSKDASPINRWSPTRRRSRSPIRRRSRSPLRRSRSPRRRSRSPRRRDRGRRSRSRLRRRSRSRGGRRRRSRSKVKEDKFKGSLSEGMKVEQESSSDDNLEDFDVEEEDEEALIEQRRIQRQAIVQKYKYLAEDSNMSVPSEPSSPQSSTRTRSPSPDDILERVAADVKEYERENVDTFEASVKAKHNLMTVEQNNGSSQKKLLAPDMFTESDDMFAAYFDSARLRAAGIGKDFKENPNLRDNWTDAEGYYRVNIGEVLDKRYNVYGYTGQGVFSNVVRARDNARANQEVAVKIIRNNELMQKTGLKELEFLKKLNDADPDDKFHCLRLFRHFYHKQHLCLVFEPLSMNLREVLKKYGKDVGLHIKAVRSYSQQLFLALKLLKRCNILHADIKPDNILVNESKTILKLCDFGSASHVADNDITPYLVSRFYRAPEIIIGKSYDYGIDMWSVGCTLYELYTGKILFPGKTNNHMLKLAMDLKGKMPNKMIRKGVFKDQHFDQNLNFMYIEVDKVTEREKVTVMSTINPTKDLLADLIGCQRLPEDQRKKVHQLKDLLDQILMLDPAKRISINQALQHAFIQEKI

HKe-3 (K-RAS^−/+) = assay: Cell viability (Syto60); type: cell-based; conditions: 72 hours; for cooperation with / sensitization to AZ-628 (cell viability): K-RAS wild-type cells (HKe-3), 1 µM AZ-628
Experimental: All colon cancer cell lines were maintained in DMEM supplemented with penicillin (100 units/mL), streptomycin (100 μg/mL), and 10% fetal bovine serum (FBS). The rectal cancer cell line (Car1) was maintained in DMEM/F12 supplemented with penicillin (100 units/mL)/streptomycin (50 μg/mL), and 5% FBS. […] The target sequences for knockdowns can be found in Table S2. In drug treatment experiments, cells were plated for 24 hours prior to exposure to drug. AZ-628 was obtained from AstraZeneca. CI-1040 was obtained from Pfizer. R406 was synthesized in the Gray laboratory. BAY61-3606 and IKK VII were purchased from EMD Biosciences. BAY derivatives were synthesized for this study.
Cell cycle analysis was performed via FACS-based propidium iodide quantification, using standard methods. To measure cell viability, cells were grown in 96-well plates in the presence or absence of drug for 72 hours, fixed with 4% paraformaldehyde, and then stained with Syto60 (Invitrogen). Plates were imaged and quantified using the LiCor Odyssey system (LiCor).

panel of 402 kinases = assay: KINOMEscan panel; type: binding; conditions: 1 μM
Experimental: as §1

T1 sequence (Q13976 whole entry): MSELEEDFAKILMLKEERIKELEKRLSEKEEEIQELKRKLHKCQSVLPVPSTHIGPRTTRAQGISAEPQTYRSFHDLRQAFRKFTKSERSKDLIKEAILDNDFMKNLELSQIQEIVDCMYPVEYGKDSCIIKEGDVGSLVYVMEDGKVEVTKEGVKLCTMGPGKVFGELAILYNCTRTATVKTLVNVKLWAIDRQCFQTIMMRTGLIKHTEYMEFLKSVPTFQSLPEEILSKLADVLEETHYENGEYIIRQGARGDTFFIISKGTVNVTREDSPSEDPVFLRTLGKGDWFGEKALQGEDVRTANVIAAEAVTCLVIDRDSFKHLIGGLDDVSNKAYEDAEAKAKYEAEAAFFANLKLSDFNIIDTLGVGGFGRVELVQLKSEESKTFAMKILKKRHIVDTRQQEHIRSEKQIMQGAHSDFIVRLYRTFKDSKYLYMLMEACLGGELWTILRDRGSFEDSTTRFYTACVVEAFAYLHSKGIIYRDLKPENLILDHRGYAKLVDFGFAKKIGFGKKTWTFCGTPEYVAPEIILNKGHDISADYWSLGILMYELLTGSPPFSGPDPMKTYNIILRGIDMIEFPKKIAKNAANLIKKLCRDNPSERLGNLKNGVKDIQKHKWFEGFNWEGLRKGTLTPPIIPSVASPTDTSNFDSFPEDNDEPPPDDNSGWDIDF

COc1ccc(-c2cc3nccn3c(Nc3ncccc3C(N)=O)n2)cc1OC.Cl.Cl [BAY61-3606, 2-[7-(3,4-dimethoxyphenyl)-imidazo [1,2-c]pyrimidin-5-ylamino] nicotinamide dihydrochloride, reference compound]
% binding compared to no inhibitor control (PRKG1): 70% | % binding compared to no inhibitor control (RIOK1): 31% | % binding compared to no inhibitor control (CDKL2): 78% | % binding compared to no inhibitor control (TNNI3K): 100% | % binding compared to no inhibitor control (ITK): 100% | % binding compared to no inhibitor control (ULK3): 51% | % binding compared to no inhibitor control [1]: 89% | % binding compared to no inhibitor control (EGFR(L747-T751del,Sins)): 80% | % binding compared to no inhibitor control (PRKG2): 70% | % binding compared to no inhibitor control (EPHA1): 81% | % binding compared to no inhibitor control (JNK3): 41% | % binding compared to no inhibitor control (FYN): 100% | % binding compared to no inhibitor control (MAP3K1): 100% | % binding compared to no inhibitor control (BRSK1): 82% | % binding compared to no inhibitor control (ERBB4): 90% | % binding compared to no inhibitor control (OSR1): 100% | % binding compared to no inhibitor control (HIPK4): 29% | % binding compared to no inhibitor control (KIT(V559D,V654A)): 71% | % binding compared to no inhibitor control (NEK5): 86% | % binding compared to no inhibitor control (CIT): 0.4% | % binding compared to no inhibitor control (CSNK1A1): 100% | % binding compared to no inhibitor control (MRCKB): 99% | % binding compared to no inhibitor control (CLK4): 11% | % binding compared to no inhibitor control (PIM1): 78% | % binding compared to no inhibitor control (PDGFRA): 67% | % binding compared to no inhibitor control (RIOK3): 98% | % binding compared to no inhibitor control (PLK1): 98% | % binding compared to no inhibitor control (ARK5): 62% | % binding compared to no inhibitor control (MYO3A): 80% | % binding compared to no inhibitor control (BMPR1B): 77% | % binding compared to no inhibitor control (PRP4): 77% | sensitization to AZ-628 (cell viability) (HKe-3 (K-RAS^−/+); HKe-3 cells with MAP4K2 knockdown, 1 µM + 1 µM AZ-628): no longer sensitizes | cooperation with / sensitization to AZ-628 (cell viability) (HKe-3 (K-RAS^−/+)): became sensitive | number of kinases with binding inhibited by greater than 90% (panel of 402 kinases; panel of 402 kinases): 15 kinases

COc1ccccc1Nc1nc(-c2ccc(OC)c(OC)c2)cc2nccn12 [BAY derivative 6]
% binding compared to no inhibitor control (PRKG1): 100% | % binding compared to no inhibitor control (RIOK1): 95% | % binding compared to no inhibitor control (CDKL2): 100% | % binding compared to no inhibitor control (TNNI3K): 100% | % binding compared to no inhibitor control (ITK): 100% | % binding compared to no inhibitor control (ULK3): 100% | % binding compared to no inhibitor control [1]: 97% | % binding compared to no inhibitor control (EGFR(L747-T751del,Sins)): 89% | % binding compared to no inhibitor control (PRKG2): 100% | % binding compared to no inhibitor control (EPHA1): 81% | % binding compared to no inhibitor control (JNK3): 100% | % binding compared to no inhibitor control (FYN): 61% | % binding compared to no inhibitor control (MAP3K1): 100% | % binding compared to no inhibitor control (BRSK1): 100% | % binding compared to no inhibitor control (ERBB4): 100% | % binding compared to no inhibitor control (OSR1): 100% | % binding compared to no inhibitor control (HIPK4): 98% | % binding compared to no inhibitor control (KIT(V559D,V654A)): 100% | % binding compared to no inhibitor control (NEK5): 72% | % binding compared to no inhibitor control (CIT): 95% | % binding compared to no inhibitor control (CSNK1A1): 100% | % binding compared to no inhibitor control (MRCKB): 100% | % binding compared to no inhibitor control (CLK4): 100% | % binding compared to no inhibitor control (PIM1): 100% | % binding compared to no inhibitor control (PDGFRA): 100% | % binding compared to no inhibitor control (RIOK3): 80% | % binding compared to no inhibitor control (PLK1): 100% | % binding compared to no inhibitor control (ARK5): 93% | % binding compared to no inhibitor control (MYO3A): 100% | % binding compared to no inhibitor control (BMPR1B): 100% | % binding compared to no inhibitor control (PRP4): 100% | cooperation with / sensitization to AZ-628 (cell viability) (HKe-3 (K-RAS^−/+)): lost its ability to cooperate with AZ-628 | ability to competitively inhibit active site (ATP) binding across the kinase panel (panel of 402 kinases): failed to effectively inhibit ATP binding by the majority of kinases
